Experimental findings from BindingDB's records for patent US20160046618 (Amgen, 2016) are described below.

Structures are written as SMILES. Where only a bound is given, the exact number is not on record here.

The target in one assay is T1, Beta-secretase 2 (Homo sapiens, UniProt Q9Y5Z0).
T1 sequence (Q9Y5Z0 whole entry): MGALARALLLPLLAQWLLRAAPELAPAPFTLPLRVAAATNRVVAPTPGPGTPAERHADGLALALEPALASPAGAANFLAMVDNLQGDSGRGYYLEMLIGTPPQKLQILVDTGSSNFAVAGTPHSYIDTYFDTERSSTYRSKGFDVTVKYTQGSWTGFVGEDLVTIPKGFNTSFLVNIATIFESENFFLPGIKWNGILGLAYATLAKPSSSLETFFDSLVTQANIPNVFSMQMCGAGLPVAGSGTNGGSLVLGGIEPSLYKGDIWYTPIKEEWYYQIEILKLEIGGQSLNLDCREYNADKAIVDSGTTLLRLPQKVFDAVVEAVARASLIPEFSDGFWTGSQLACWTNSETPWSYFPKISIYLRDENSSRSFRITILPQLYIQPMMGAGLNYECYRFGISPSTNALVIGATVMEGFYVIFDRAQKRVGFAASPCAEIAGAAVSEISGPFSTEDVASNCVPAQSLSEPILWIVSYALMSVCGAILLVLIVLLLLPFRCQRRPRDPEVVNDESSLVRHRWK
As to the kind of experiment: In Vitro Enzymatic BACE1 and BACE2 FRET Assays. The protocol: (§1) The cDNAs for both human recombinant BACE1 and BACE2 with C-terminal 6-His Tags were cloned into transient protein expression vectors, which were subsequently transfected into mammalian cell lines. These recombinant proteins were further purified using Ni-NTA affinity chromatography (Qiagen). The assay buffer used in these screens is 0.05 M acetate, pH 4.5, 8% DMSO final, 100 uM genapol (which is a nonionic detergent, below its Critical Micelle Concentration). […] This assay is effectively started by the addition of FRET substrate (50 nM) and the combination is incubated for one hour. The FRET assay is terminated by addition of Tris buffer, which raises the pH to neutrality, and the fluorescence is determined. The FRET substrate is a peptide with commercially available fluorophore and quencher, on opposite sides of the BACE cleavage site.

Another assay concerns the target Cathepsin D (Homo sapiens, UniProt P07339). As to the kind of experiment: In Vitro Enzymatic Cathepsin D (Cat D) FRET Assay. As for the experimental part:
Recombinant Cat D was expressed in CHO cells. The assay buffer for CathepsinD is 0.05 M citrate pH 3.5, 10% DMSO final, 5 mM CHAPS. […] The assays are effectively started by the addition of different FRET substrates (20 nM for Cat D) and the combination is incubated for one hour. The FRET assay is terminated with by addition of Tris buffer, which raises the pH to neutrality, and the fluorescence is determined. The FRET substrate is a peptide with commercially available fluorophore and quencher, on opposite sides of the BACE cleavage site. […] Proteolytic cleavage of the FRET substrate releases quenching of fluorescence (Cat D excitation 500 nm and emission 580 nm).

Another assay deals with Beta-secretase 1 (Homo sapiens, UniProt P56817). In words: In Vitro Enzymatic BACE1 and BACE2 FRET Assays. As for the experimental part: as §1
Beta-secretase 1, sequence (P56817 whole entry): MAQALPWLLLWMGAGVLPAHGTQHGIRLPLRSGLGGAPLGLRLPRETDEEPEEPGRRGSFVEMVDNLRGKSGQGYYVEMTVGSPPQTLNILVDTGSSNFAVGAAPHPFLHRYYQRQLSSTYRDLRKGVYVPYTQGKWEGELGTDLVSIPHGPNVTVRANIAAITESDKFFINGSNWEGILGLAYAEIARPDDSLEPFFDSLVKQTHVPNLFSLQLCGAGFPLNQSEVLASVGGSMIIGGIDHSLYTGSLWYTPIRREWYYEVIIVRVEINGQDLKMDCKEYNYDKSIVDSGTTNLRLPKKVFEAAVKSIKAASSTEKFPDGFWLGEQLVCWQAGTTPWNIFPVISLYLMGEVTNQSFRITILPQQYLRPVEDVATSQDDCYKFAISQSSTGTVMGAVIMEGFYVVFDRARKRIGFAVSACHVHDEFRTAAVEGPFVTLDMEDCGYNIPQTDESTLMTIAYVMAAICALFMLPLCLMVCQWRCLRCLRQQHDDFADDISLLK

Cathepsin D, sequence (P07339 65-162 limits assumed): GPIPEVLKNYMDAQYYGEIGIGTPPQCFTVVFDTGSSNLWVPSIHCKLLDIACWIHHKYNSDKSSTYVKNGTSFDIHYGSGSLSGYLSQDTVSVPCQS
Cathepsin D, sequence (P07339 169-412 limits assumed): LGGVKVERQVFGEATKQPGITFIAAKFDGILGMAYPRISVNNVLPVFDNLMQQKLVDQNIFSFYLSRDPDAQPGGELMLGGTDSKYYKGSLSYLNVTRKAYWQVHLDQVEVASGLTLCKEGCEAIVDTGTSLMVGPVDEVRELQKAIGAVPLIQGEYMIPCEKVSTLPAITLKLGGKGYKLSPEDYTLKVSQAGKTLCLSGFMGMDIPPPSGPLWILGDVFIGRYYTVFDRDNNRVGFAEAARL

Consider `NC1=N[C@](CF)(c2cc(Nc3ncnc4cc(Cl)cnc34)ccc2F)[C@H]2C[C@@H]2S1` [US20160046618, Example 39], for which the IC50 at Beta-secretase 2 came out at 0.0278 µM; on Cathepsin D, 1220 µM.

For `Cc1cc(C#N)cnc1C(=O)Nc1cc(F)c(F)c([C@@]2(CF)N=C(N)S[C@@]3(C(F)F)C[C@@H]23)c1` [US20160046618, Example 94], the half-maximal inhibitory concentration (IC50) at Beta-secretase 2 was less than 0.00203 µM; at Cathepsin D, 559 µM.

Consider `C#C[C@H](C)Oc1cnc(C(=O)Nc2cc(F)c(F)c([C@@]3(C)N=C(N)S[C@@]4(CF)C[C@H]43)c2)c(C)n1` [US20160046618, Example 616], for which the half-maximal inhibitory concentration (IC50) at Beta-secretase 1 is 0.00342 µM; on Beta-secretase 2, 0.124 µM; on Cathepsin D, 905 µM.

With `C#C[C@H](C)Oc1cnc(C(=O)Nc2cc(F)c(F)c([C@@]3(C)N=C(N)S[C@@]4(COC)C[C@H]43)c2)c(C)n1` [US20160046618, Example 622], the IC50 was 0.00492 µM on Beta-secretase 1, 0.225 µM on Beta-secretase 2 and 946 µM at Cathepsin D.

For `C#C[C@H](C)Oc1cnc(C(=O)Nc2ccc(F)c([C@@]3(C)N=C(N)S[C@@]4(C(F)F)C[C@@H]34)c2)c(C)c1` [US20160046618, Example 648], the results for the IC50 at Beta-secretase 1, at Beta-secretase 2 and at Cathepsin D were 0.0433 µM, 0.522 µM and 196 µM, respectively.

Consider `C#CCOc1cnc(C(=O)Nc2ccc(F)c([C@@]3(C)N=C(N)S[C@@]4(CF)C[C@H]43)c2)cn1` [US20160046618, Example 822], for which the concentration for half-maximal inhibition (IC50) at Beta-secretase 1 amounted to 0.000264 µM; on Beta-secretase 2, 0.0147 µM; at Cathepsin D, 150 µM.

Take `C[C@]1(c2cc(NC(=O)c3ccc(Cl)cn3)cc(F)c2F)N=C(N)S[C@@]2(C(=O)O)C[C@H]21` [US20160046618, Example 899]: the results for the IC50 on Beta-secretase 1, at Beta-secretase 2 and on Cathepsin D were 0.00889 µM, 0.00258 µM and greater than 400 µM, respectively.

As to `NC1=N[C@](CF)(c2cc(Nc3nccc4nc(OCc5ncco5)cnc34)ccc2F)[C@@H]2C[C@]2(c2c[nH]nn2)S1` [US20160046618, Example 957], the values for the half-maximal inhibitory concentration (IC50) on Beta-secretase 1, at Beta-secretase 2 and on Cathepsin D were 0.000621 µM, 0.00538 µM and 1260 µM, respectively.

Consider `C=CC(C)Oc1cnc(C(=O)Nc2ccc(F)c([C@@]3(C)N=C(N)S[C@@]4(COC)C[C@H]43)c2)cn1` (stereo not given in full) [US20160046618, Example 1063], for which the half-maximal inhibitory concentration (IC50) on Beta-secretase 1 was 0.037 µM; at Beta-secretase 2, 0.555 µM; on Cathepsin D, greater than 400 µM.

Broadly, the IC50 is the concentration that gives 50% inhibition.
